Reference: patent publication US10669261B2, “Heteroarylhydroxypyrimidinones as agonists of the APJ receptor” (BRISTOL-MYERS SQUIBB COMPANY, priority 2015, dated 2020)

The compounds below were run against T1, human APJ receptor (Homo sapiens, UniProt P35414) (assay: Intracellular cAMP accumulation assay (APJ hcAMP, HTRF)). Conditions: HEK293 cells stably expressing human APJ receptor; inhibition of forskolin-mediated cAMP production; stated at end of example; read-out: Human APJ cAMP Potency Range.
T1 construct: expressed in transfected cells
T1 sequence (P35414 1-380): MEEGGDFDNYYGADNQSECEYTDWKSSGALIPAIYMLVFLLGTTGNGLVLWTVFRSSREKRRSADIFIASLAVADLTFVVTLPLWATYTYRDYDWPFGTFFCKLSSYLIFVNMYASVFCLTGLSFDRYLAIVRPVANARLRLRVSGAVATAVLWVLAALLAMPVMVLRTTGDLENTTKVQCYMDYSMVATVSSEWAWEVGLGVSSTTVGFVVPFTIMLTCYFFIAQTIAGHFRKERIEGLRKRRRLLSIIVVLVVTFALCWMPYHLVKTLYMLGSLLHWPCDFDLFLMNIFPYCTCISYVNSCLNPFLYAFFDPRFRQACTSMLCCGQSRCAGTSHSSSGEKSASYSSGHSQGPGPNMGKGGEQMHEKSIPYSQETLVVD
Type: cell-based
Procedure: Intracellular cAMP Accumulation Assay
HEK293 cells stably expressing human APJ receptor were used to assess the activity of compounds. Cultured cells were detached and resuspended in the cAMP Homogeneous Time-Resolved Fluorescence (HTRF) assay buffer (Cisbio cat; #62AM4PEJ). The assay was performed in 384-well assay plates (Perkin-Elmer; cat #6008289) according to assay protocol provided by the manufacturer. Serial dilutions of a compound together with assay buffer containing […] IBMX and 2 μM forskolin were added to each well containing 5,000 cells and incubated for 30 minutes at room temperature. Subsequently, cAMP D2 reagent was added in the lysis buffer followed by the EuK antibody (Cisbio; cat #62AM4PEJ) and incubated for 60 min. The fluorescence emission ratio was measured using fluorometer. The intracellular cAMP concentrations (compound-stimulated inhibition of forskolin-mediated cAMP production) were calculated by extrapolation from a standard curve using known cAMP concentrations. The EC50 values were obtained by fitting the data to a sigmoidal concentration-response curve with variable slope. The maximal achievable inhibition of forskolin-induced cAMP levels (Ymax) for each compound was expressed as relative percentage of inhibition attained using pyroglutamated apelin-13 ((Pyr1)apelin-13) peptide, which was set to 100%.
The examples disclosed below were tested in the APJ in vitro assays described above and were found having human APJ cyclic AMP (hcAMP) activity. The EC50 value of each compound is presented at the end of the example description.
The biological activity of the exemplified compounds of this invention determined by the assay described above is shown at the end of each example.

Row | EC50 [nM] | Compound
1 | 0.01 to 10 | CCCCc1nc(=O)c(-c2nnc(Cc3noc4ccccc34)o2)c(O)n1-c1c(OCC)cccc1OCC [Example 23, 5-(5-(Benzo[d]isoxazol-3-ylmethyl)-1,3,4-oxadiazol-2-yl)-2-butyl-1-(2,6-diethoxyphenyl)-6-hydroxypyrimidin-4(1H)-one]

Same assay, conditions: Table 1; HEK293 cells stably expressing human APJ receptor; read-out: hAPJ cAMP EC50 Potency range

Row | Compound | EC50 [nM]
2 | COc1cccc(OC)c1-n1c(CCC2CC2)nc(=O)c(-c2nnc(CN3CCOCC3=O)o2)c1O [Example 47, 4-({5-[2-(2-cyclopropylethyl)-1-(2,6-dimethoxyphenyl)-6-hydroxy-4-oxo-1,4-dihydropyrimidin-5-yl]-1,3,4-oxadiazol-2-yl}methyl)morpholin-3-one] | 0.01 to 10
3 | CCOCc1nc(=O)c(-c2nnc(Cc3ccc(Cl)cc3)o2)c(O)n1-c1c(OC)cccc1OC [Example 40, 5-{5-[(4-chlorophenyl)methyl]-1,3,4-oxadiazol-2-yl}-1-(2,6-dimethoxyphenyl)-2-(ethoxymethyl)-6-hydroxy-1,4-dihydropyrimidin-4-one] | 0.01 to 10

Second part, the compound after the results:

Row | EC50 [nM] | Compound
4 | 0.01 to 10 | CCCCc1nc(=O)c(-c2nnc(Cn3ccccc3=O)o2)c(O)n1-c1c(OC)cccc1OC [Example 6, 2-butyl-1-(2,6-dimethoxyphenyl)-6-hydroxy-5-{5-[(2-oxo-1,2-dihydropyridin-1-yl)methyl]-1,3,4-oxadiazol-2-yl}-1,4-dihydropyrimidin-4-one]
5 | 0.01 to 10 | CCCCc1nc(=O)c(-c2nnc(Cc3noc4ccccc34)o2)c(O)n1-c1c(OC)ncnc1OC [Example 18, 5-[5-(1,2-benzoxazol-3-ylmethyl)-1,3,4-oxadiazol-2-yl]-2-butyl-1-(4,6-dimethoxypyrimidin-5-yl)-6-hydroxy-1,4-dihydropyrimidin-4-one]
6 | 0.01 to 10 | COc1cccc(OC)c1-n1c(CCC2CC2)nc(=O)c(-c2nnc(CN(C)C(=O)c3ccccn3)o2)c1O [Example 54, N-({5-[2-(2-cyclopropylethyl)-1-(2,6-dimethoxyphenyl)-6-hydroxy-4-oxo-1,4-dihydropyrimidin-5-yl]-1,3,4-oxadiazol-2-yl}methyl)-N-methylpyridine-2-carboxamide]
7 | 0.01 to 10 | C=CCCc1nc(=O)c(-c2nnc(Cc3ccc(Cl)cc3)o2)c(O)n1-c1c(OC)cccc1OC [Example 14, 2-(but-3-en-1-yl)-5-{5-[(4-chlorophenyl)methyl]-1,3,4-oxadiazol-2-yl}-1-(2,6-dimethoxyphenyl)-6-hydroxy-1,4-dihydropyrimidin-4-one]
8 | 0.01 to 10 | CCOCc1nc(=O)c(-c2nnc(Cc3ccc(Cl)c(F)c3)o2)c(O)n1-c1c(OC)cccc1OC [Example 38, 5-{5-[(4-chloro-3-fluorophenyl)methyl]-1,3,4-oxadiazol-2-yl}-1-(2,6-dimethoxyphenyl)-2-(ethoxymethyl)-6-hydroxy-1,4-dihydropyrimidin-4-one]

Same assay, conditions: Table 2; HEK293 cells stably expressing human APJ receptor; read-out: hAPJ cAMP EC50 Potency range

Row | EC50 [nM] | Compound
9 | 0.01 to 10 | CCCCc1nc(O)c(-c2nnc(Cc3ccc(Cl)cn3)o2)c(=O)n1C(c1ccccc1)C(C)C (stereo not drawn) [Example 113, 2-butyl-5-{5-[(5-chloropyridin-2-yl)methyl]-1,3,4-oxadiazol-2-yl}-6-hydroxy-3-(2-methyl-1-phenylpropyl)-3,4-dihydropyrimidin-4-one]
10 | 10 to 100 | CCCCc1nc(O)c(-c2nnc(Cc3noc4ccccc34)o2)c(=O)n1[C@H](C)c1ccccc1OC [Example 78, 5-{5-[(1,2-benzoxazol-3-yl)methyl]-1,3,4-oxadiazol-2-yl}-2-butyl-6-hydroxy-3-[(1R)-1-(2-methoxyphenyl)ethyl]-3,4-dihydropyrimidin-4-one]
11 | 0.01 to 10 | CCCCc1nc(O)c(-c2nnc(Cc3ccc(Cl)cn3)o2)c(=O)n1[C@@H](C)c1ccccc1 [Example 119, 2-butyl-5-{5-[(5-chloropyridin-2-yl)methyl]-1,3,4-oxadiazol-2-yl}-6-hydroxy-3-[(1S)-1-phenylethyl]-3,4-dihydropyrimidin-4-one]
12 | 0.01 to 10 | CCCCc1nc(O)c(-c2nnc(Cc3ccc(Cl)cn3)o2)c(=O)n1C(C)c1ccncc1 (stereo not drawn) [Example 111, 2-butyl-5-{5-[(5-chloropyridin-2-yl)methyl]-1,3,4-oxadiazol-2-yl}-6-hydroxy-3-[1-(pyridin-4-yl)ethyl]-3,4-dihydropyrimidin-4-one]
